Assay results from ChEMBL document CHEMBL1255373, “In vitro antibacterial activity of CE-156811, a novel analog derived from hygromycin A” (2008).
≈ marks a conversion by molar mass, not a printed value.

How the values were obtained:
Assay type in all cases: functional
Moraxella catarrhalis = assay: Antibacterial activity against Moraxella catarrhalis clinical isolate by broth microdilution method
Haemophilus influenzae = assay: Antibacterial activity against Haemophilus influenzae clinical isolate by broth microdilution method
Burkholderia cepacia = assay: Antibacterial activity against Burkholderia cepacia clinical isolate by broth microdilution method
Acinetobacter sp. = assay: Antibacterial activity against Acinetobacter sp. by broth microdilution method
Morganella morganii = assay: Antibacterial activity against Morganella morganii clinical isolate by broth microdilution method
Klebsiella pneumoniae [1] = assay: Antibacterial activity against Klebsiella pneumoniae clinical isolate by broth microdilution method
Klebsiella oxytoca = assay: Antibacterial activity against Klebsiella oxytoca clinical isolate by broth microdilution method
Providencia rettgeri = assay: Antibacterial activity against Providencia rettgeri clinical isolate by broth microdilution method
Serratia marcescens = assay: Antibacterial activity against Serratia marcescens clinical isolate by broth microdilution method
Citrobacter freundii = assay: Antibacterial activity against Citrobacter freundii clinical isolate by broth microdilution method
Klebsiella pneumoniae [2] = assay: Antibacterial activity against extended-spectrum beta-lactamase producing Klebsiella pneumoniae clinical isolate by broth microdilution method
Klebsiella aerogenes = assay: Antibacterial activity against Enterobacter aerogenes clinical isolate by broth microdilution method
Enterobacter cloacae = assay: Antibacterial activity against Enterobacter cloacae clinical isolate by broth microdilution method
Proteus mirabilis = assay: Antibacterial activity against Proteus mirabilis clinical isolate by broth microdilution method
Escherichia coli = assay: Antibacterial activity against Escherichia coli clinical isolate by broth microdilution method
Proteus vulgaris = assay: Antibacterial activity against Proteus vulgaris clinical isolate by broth microdilution method
Citrobacter koseri = assay: Antibacterial activity against Citrobacter diversus clinical isolate by broth microdilution method
Shigella sp. = assay: Antibacterial activity against Shigella sp. by broth microdilution method
Salmonella sp. = assay: Antibacterial activity against Salmonella sp. by broth microdilution method
[3] = test system: Stenotrophomonas maltophilia; assay: Antibacterial activity against Stenotrophomonas maltophilia clinical isolate by broth microdilution method
Pseudomonas aeruginosa = assay: Antibacterial activity against Pseudomonas aeruginosa clinical isolate by broth microdilution method
Enterococcus faecalis [4] = assay: Antibacterial activity against […] Enterococcus faecalis ATCC 29212 by broth microdilution method
Enterococcus faecium [5] = assay: Antibacterial activity against linezolid-resistant Enterococcus faecium 03B1078 by broth microdilution method
Enterococcus faecium [6] = assay: Antibacterial activity against linezolid-resistant Enterococcus faecium 03B1076 by broth microdilution method
Enterococcus faecium [7] = assay: Antibacterial activity against linezolid-resistant Enterococcus faecium 03B1075 by broth microdilution method
Enterococcus faecium [8] = assay: Antibacterial activity against linezolid-resistant Enterococcus faecium 03B1077 by broth microdilution method
Staphylococcus aureus [9] = assay: Antibacterial activity against linezolid-resistant Staphylococcus aureus 01A1221 by broth microdilution method
Enterococcus faecium [10] = assay: Antibacterial activity against linezolid-resistant Enterococcus faecium 03B1073 by broth microdilution method
Enterococcus faecium [11] = assay: Antibacterial activity against linezolid-resistant Enterococcus faecium 03B1074 by broth microdilution method
Staphylococcus aureus [12] = assay: Antibacterial activity against […] Staphylococcus aureus ATCC 29213 by broth microdilution method
Enterococcus faecalis [13] = assay: Antibacterial activity against linezolid-resistant Enterococcus faecalis 03A1128 by broth microdilution method
Staphylococcus aureus [14] = assay: Antibacterial activity against linezolid-resistant Staphylococcus aureus 01A1220 by broth microdilution method

With CC1(C)S[C@@H]2[C@H](NC(=O)[C@H](N)c3ccc(O)cc3)C(=O)N2[C@H]1C(=O)O [AMOXICILLIN] as the compound, how does the MIC50 (Moraxella catarrhalis) read?
The MIC50 was 1 µg/mL (≈ 2.74 µM).

What about the MIC90 (Moraxella catarrhalis) of the same compound?
Its MIC90 is 8 µg/mL (≈ 21.9 µM).

What about the MIC50 (Haemophilus influenzae) of the same compound?
Its MIC50 is 2 µg/mL (≈ 5.47 µM).

What about the MIC90 (Haemophilus influenzae) of the same compound?
The MIC90 was 32 µg/mL (≈ 87.6 µM).

For CC(C)(O/N=C(\C(=O)N[C@@H]1C(=O)N2C(C(=O)[O-])=C(C[n+]3ccccc3)CS[C@H]12)c1csc(N)n1)C(=O)O [CEFTAZIDIME], which MIC50 (Burkholderia cepacia) is on record?
Its MIC50 is 16 µg/mL (≈ 29.3 µM).

What about the MIC90 (Burkholderia cepacia) of the same compound?
The MIC90 was greater than 64 µg/mL.

What about the MIC50 (Acinetobacter sp.) of the same compound?
The MIC50 was 16 µg/mL (≈ 29.3 µM).

What about the MIC90 (Acinetobacter sp.) of the same compound?
The MIC90 was greater than 64 µg/mL.

What about the MIC50 (Morganella morganii) of the same compound?
The MIC50 was 0.5 µg/mL (≈ 0.915 µM).

What about the MIC90 (Morganella morganii) of the same compound?
The MIC90 was greater than 64 µg/mL.

And the MIC50 (Klebsiella pneumoniae [1])?
The MIC50 was 0.5 µg/mL (≈ 0.915 µM).

And the MIC90 (Klebsiella pneumoniae [1])?
Its MIC90 is greater than 64 µg/mL.

And the MIC50 (Klebsiella oxytoca)?
Its MIC50 is 0.5 µg/mL (≈ 0.915 µM).

And the MIC90 (Klebsiella oxytoca)?
Its MIC90 is greater than 64 µg/mL.

What about the MIC50 (Providencia rettgeri) of the same compound?
Its MIC50 is 0.5 µg/mL (≈ 0.915 µM).

And the MIC90 (Providencia rettgeri)?
The MIC90 was greater than 64 µg/mL.

And the MIC50 (Serratia marcescens)?
Its MIC50 is 0.5 µg/mL (≈ 0.915 µM).

What about the MIC90 (Serratia marcescens) of the same compound?
Its MIC90 is greater than 64 µg/mL.

What about the MIC50 (Citrobacter freundii) of the same compound?
The MIC50 was 0.5 µg/mL (≈ 0.915 µM).

And the MIC90 (Citrobacter freundii)?
Its MIC90 is greater than 64 µg/mL.

What about the MIC50 (Klebsiella pneumoniae [2]) of the same compound?
The MIC50 was 0.5 µg/mL (≈ 0.915 µM).

And the MIC90 (Klebsiella pneumoniae [2])?
Its MIC90 is greater than 64 µg/mL.

And the MIC50 (Klebsiella aerogenes)?
Its MIC50 is 0.5 µg/mL (≈ 0.915 µM).

And the MIC90 (Klebsiella aerogenes)?
The MIC90 was greater than 64 µg/mL.

And the MIC50 (Enterobacter cloacae)?
The MIC50 was 0.5 µg/mL (≈ 0.915 µM).

And the MIC90 (Enterobacter cloacae)?
Its MIC90 is greater than 64 µg/mL.

And the MIC50 (Proteus mirabilis)?
The MIC50 was 0.5 µg/mL (≈ 0.915 µM).

What about the MIC90 (Proteus mirabilis) of the same compound?
Its MIC90 is greater than 64 µg/mL.

What about the MIC50 (Escherichia coli) of the same compound?
Its MIC50 is 0.5 µg/mL (≈ 0.915 µM).

What about the MIC90 (Escherichia coli) of the same compound?
Its MIC90 is greater than 64 µg/mL.

And the MIC50 (Proteus vulgaris)?
The MIC50 was 0.5 µg/mL (≈ 0.915 µM).

And the MIC90 (Proteus vulgaris)?
The MIC90 was greater than 64 µg/mL.

What about the MIC50 (Citrobacter koseri) of the same compound?
The MIC50 was 0.5 µg/mL (≈ 0.915 µM).

What about the MIC90 (Citrobacter koseri) of the same compound?
The MIC90 was greater than 64 µg/mL.

What about the MIC50 (Shigella sp.) of the same compound?
The MIC50 was 0.5 µg/mL (≈ 0.915 µM).

What about the MIC90 (Shigella sp.) of the same compound?
Its MIC90 is greater than 64 µg/mL.

What about the MIC50 (Salmonella sp.) of the same compound?
The MIC50 was 0.5 µg/mL (≈ 0.915 µM).

And the MIC90 (Salmonella sp.)?
The MIC90 was greater than 64 µg/mL.

What about the MIC50 [3] of the same compound?
The MIC50 was 16 µg/mL (≈ 29.3 µM).

What about the MIC90 [3] of the same compound?
Its MIC90 is greater than 64 µg/mL.

What about the MIC50 (Pseudomonas aeruginosa) of the same compound?
Its MIC50 is 16 µg/mL (≈ 29.3 µM).

What about the MIC90 (Pseudomonas aeruginosa) of the same compound?
Its MIC90 is greater than 64 µg/mL.

With O=C(N[C@H](CO)[C@H](O)c1ccc([N+](=O)[O-])cc1)C(Cl)Cl [CHLORAMPHENICOL] as the compound, how does the MIC (Enterococcus faecalis [4]) read?
Its MIC is 8 µg/mL (≈ 24.8 µM).

What about the MIC (Enterococcus faecium [5]) of the same compound?
The MIC was 16 µg/mL (≈ 49.5 µM).

And the MIC (Enterococcus faecium [6])?
The MIC was 32 µg/mL (≈ 99 µM).

And the MIC (Enterococcus faecium [7])?
Its MIC is 32 µg/mL (≈ 99 µM).

What about the MIC (Enterococcus faecium [8]) of the same compound?
Its MIC is 8 µg/mL (≈ 24.8 µM).

What about the MIC (Staphylococcus aureus [9]) of the same compound?
Its MIC is 32 µg/mL (≈ 99 µM).

And the MIC (Enterococcus faecium [10])?
Its MIC is 8 µg/mL (≈ 24.8 µM).

And the MIC (Enterococcus faecium [11])?
Its MIC is 32 µg/mL (≈ 99 µM).

What about the MIC (Staphylococcus aureus [12]) of the same compound?
Its MIC is 8 µg/mL (≈ 24.8 µM).

What about the MIC (Enterococcus faecalis [13]) of the same compound?
The MIC was greater than 32 µg/mL.

And the MIC (Staphylococcus aureus [14])?
The MIC was greater than 32 µg/mL.
